Results taken from patent US20190358974A1, “COMPOSITIONS AND PARTICLES CONTAINING CELLULOSIC FIBERS AND STABILIZED- AND/OR ACTIVATED- UREASE INHIBITORS, AS WELL AS METHODS OF MAKING AND USING THE SAME” (INTERNATIONAL PAPER COMPANY, priority 2016, published 2019).

Columns and labels:
[1] = cited from earlier work
[2] = Aging/degradation of PPDA on dry pulp, PPDA remaining tested by HPLC; type: physicochemical; settings: 400 ppm PPDA on pulp stored on shelf as dry pulp, ambient conditions
Experimental: Bleached softwood pulp sheets were treated (sprayed) respectively with: 1) 400 ppm PPDA on pulp from water solution; 2) 400 ppm PPDA on pulp from PEG-200 solution; 3) 400 ppm PPDA on pulp from solution of 90% PEG-200 and 10% Talc powder. All the samples were dried on a dryer can at 195 F. They were then stored under room temperature (23 C) and 50% humidity chamber. The PPDA content remaining in the dry pulp samples was tested by HPLC.
They were then put into a controlled chamber with temperature of 55 C and 50% relative humidity. The PPDA content remaining in the dry pulp samples was tested by HPLC.
Accelerated aging study was done at 35 C and 50% RH with individual sheets thoroughly exposed to the environment. The control PPDA doses were 400 ppm and 1000 ppm based on the weight of the sheet, applied with water solution and dried. And the stabilized PPDA doses were also at 400 ppm and 1000 ppm on sheet, applied with 2% PPDA solution in PEG-200. The results are shown in the table below, and plotted in FIG. 4.
Aging test was also conducted on-shelf in the bag at room conditions. The result was shown in Table 12, and plotted in FIG. 5 in log scale.

[3] = tested on: Proteus mirabilis ATCC #7002; experiment: Bacterial ammonia test: NH3 in headspace over fluff/SAP pad inoculated with bacteria in synthetic urine; type: cell-based; settings: 400 ppm PPDA inside cellulosic pulp, stored dry at ambient conditions, 20 weeks
Text: Test Pad Sample Preparation • 1. Place a non-woven carrier on the 50 mm diameter SCAN pad former screen, attach tube, tare, and place on SCAN test piece former. • 2. Weigh out 0.60 gm fiberized pulp. Fibers should be “fluffy”, well dispersed, and spread evenly in the weighing pan. • 3. Sprinkle 0.40 gm SAP evenly over the fiber. • 4. Start the vacuum and feed the SAP/fiber into the forming cone through the feed tube, ensuring that both materials are simultaneously introduced. • 5. Remove the pad assembly from the former and weigh. Lightly compress the pad and remove the tube. • 6. Lift the non-woven carrier with the pad off of the screen. • 7. Press to ˜3 mm • 8. Seal pad wrapped in non-woven in a plastic ziplok bag until testing.
This is the Test Inoculum Solution.
At the end of the designated exposure period, the ammonia in the headspace of the sealed jar is measured using the Drager system. The sampling end of the Drager tube is fitted with a needle which is inserted through the septum. A vent needle is inserted to allow withdrawal of the gaseous sample. The opposite end of the measuring tube is attached to the Drager pump. Ammonia is withdrawn according to the manufacturer specifications for the tube and the measurement recorded.
The PPDA treated pulp was then shredded by a lab hammermill to convert into fluff fibers. […]

NP(N)(=O)Oc1ccccc1 [PPDA, phenylphosphorodiamidate]
stability of dry PPDA ([1]; dry): stable
stability in water ([1]; in water): not stable
stability inside cellulosic pulp [2]: not stable
effectiveness against ammonia generation [3]: lost all its effectiveness against ammonia generation
